Molecules are shown by their SMILES.

DC50 data for twelve compounds are collected here from patent US20250051338A1, “TYK2 DEGRADERS AND USES THEREOF” (Kymera Therapeutics, Inc., priority 2021, published 2025).

For the first assay, the target named is T1, TYK2 (Homo sapiens, UniProt P29597). Description: TYK2 degradation MSD assay in human PBMC cells. The format is cell-based. More on the design: endogenous in cells; host or cells: human PBMC. The note with it: 4 to 24 hours incubation, read-out: TYK2 MSD DC50 rating in human PBMC. Here is the method: (§1) Example 3. TYK2 Degradation MSD Assay in EBV-B, OCI-LY10, and Human PBMC Cells
T1 sequence (P29597 whole entry): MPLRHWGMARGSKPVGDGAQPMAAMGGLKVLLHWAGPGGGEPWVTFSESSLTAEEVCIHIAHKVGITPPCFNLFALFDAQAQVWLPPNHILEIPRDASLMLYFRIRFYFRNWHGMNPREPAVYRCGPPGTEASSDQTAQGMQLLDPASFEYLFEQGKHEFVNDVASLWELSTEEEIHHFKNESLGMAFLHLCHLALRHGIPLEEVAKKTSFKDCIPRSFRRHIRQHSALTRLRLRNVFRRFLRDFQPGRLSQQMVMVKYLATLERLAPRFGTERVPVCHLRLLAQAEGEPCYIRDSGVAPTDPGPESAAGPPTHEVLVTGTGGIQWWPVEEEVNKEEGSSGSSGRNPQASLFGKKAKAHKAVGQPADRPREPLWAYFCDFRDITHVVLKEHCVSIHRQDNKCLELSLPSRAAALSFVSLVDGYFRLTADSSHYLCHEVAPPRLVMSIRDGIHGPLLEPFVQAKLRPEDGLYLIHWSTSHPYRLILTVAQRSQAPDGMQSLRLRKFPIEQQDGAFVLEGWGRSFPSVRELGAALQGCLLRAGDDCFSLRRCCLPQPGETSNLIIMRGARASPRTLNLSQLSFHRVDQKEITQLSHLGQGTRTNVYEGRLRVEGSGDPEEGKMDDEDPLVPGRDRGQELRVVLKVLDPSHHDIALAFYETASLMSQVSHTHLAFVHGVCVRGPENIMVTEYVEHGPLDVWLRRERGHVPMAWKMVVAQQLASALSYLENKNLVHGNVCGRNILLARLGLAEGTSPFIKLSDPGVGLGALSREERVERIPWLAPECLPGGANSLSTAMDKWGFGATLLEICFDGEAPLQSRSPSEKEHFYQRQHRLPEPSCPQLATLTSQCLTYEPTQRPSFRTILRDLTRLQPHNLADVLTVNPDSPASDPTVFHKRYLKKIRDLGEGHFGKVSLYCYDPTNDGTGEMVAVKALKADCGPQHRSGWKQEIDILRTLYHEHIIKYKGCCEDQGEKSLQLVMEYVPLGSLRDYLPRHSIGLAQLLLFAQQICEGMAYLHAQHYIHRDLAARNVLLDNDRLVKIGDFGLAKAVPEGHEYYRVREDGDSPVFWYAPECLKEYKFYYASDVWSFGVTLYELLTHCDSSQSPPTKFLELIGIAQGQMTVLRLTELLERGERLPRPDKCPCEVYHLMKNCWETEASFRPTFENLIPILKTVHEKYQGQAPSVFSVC
(§2) Degradation of TYK2 in cells was quantitatively measured using Meso Scale Discovery (MSD) technology. EBV-B, OCI-LY10 or human PBMC cells were seeded in 96-well plates with a density of 0.4 million cells per well in 100 μl fresh media. Compounds were then added to the assay plates with a final top concentration of 1 to 10 μM in a 1:3 dilution series with total of 9 doses. The assay plates were then incubated for 4 to 24 hours at 37° C. under 5% CO2. The assay plates were then centrifuged for 5 minutes, and the cell pellets were treated with 100 μl/well RIPA lysis buffer (Boston Bioproducts, BP-115D) with protease and phosphatase inhibitors (Roche, 05892791001 and 04906837001). To prepare MSD assay plates (MSD, L15XA), the plates were coated with the capture antibody (Santa Cruz Biotechnology, SC-5271) in PBS, at 40 μl/well. The plates were then incubated overnight at 4° C., washed 3 times with 150 μl/well TBST buffer (Cell Signaling Technology, 9997S) and blocked with 150 μl/well blocking buffer (MSD, R93BA-4). Cell lysates were then added to MSD assay plates and the plates were incubated at room temperature for 1 hour. The plates were then washed 3 times with 150 μl/well TBST buffer and 25 μl/well primary detection antibody (Cell Signaling Technology, #9312). The assay plates were then incubated at room temperature for 1 hour, washed 3 times with 150 μl/well TBST buffer, and 25 μl/well secondary detection antibody, SULFO-TAG anti-rabbit antibody (MSD, R32AB-1) were added. The assay plates were then incubated at room temperature for 1 hour, washed 3 times with 150 μl/well TBST buffer, and 150 μl/well MSD reading buffer (MSD, R92TC-2) were added. The plates were then analyzed by an MSD reader. The data was analyzed by GraphPad Prism and the dose dependent TYK2 degradation was fit using the four-parameter inhibitor vs. response nonlinear regression. The DC50 data were measured and categorized into different levels in Table H. The compound with DC50 less than or equal to 1 nM is marked as A, with DC50 more than 1 nM and less than or equal to 10 nM is marked as B, with DC50 more than 10 nM and less than or equal to 100 nM is marked as C, and with DC50 more than 100 nM or not available is marked as D.
Broadly, the DC50 is the concentration at which degradation of the target reaches its halfway point. For the compound `CNC(=O)c1cnc(Nc2ccc(C(=O)NCCCCCCCCc3ccc4c(c3)n(C)c(=O)n4C3CCC(=O)NC3=O)cn2)cc1Nc1cccc(-c2ncc(F)cn2)c1OC` (stereo not drawn) [Example K111], the DC50 was less than 0.001 µM.
Still for that read-out and setting: as for `CNC(=O)c1cnc(Nc2ccc(C(=O)NCCOCCOCCc3ccc4c(c3)n(C)c(=O)n4C3CCC(=O)NC3=O)cn2)cc1Nc1cccc(-c2ncc(F)cn2)c1OC` (stereo not drawn) [Example K112], the figure is 0.001 to 0.01 µM; as for `CNC(=O)c1cnc(Nc2ccc(C(=O)NCCOCCOCCOCCOCCc3ccc4c(c3)n(C)c(=O)n4C3CCC(=O)NC3=O)cn2)cc1Nc1cccc(-c2ncc(F)cn2)c1OC` (stereo not drawn) [Example K113], 0.001 to 0.01 µM.
Still for that read-out and setting: the same measure for `CNC(=O)c1cnc(Nc2ccc(C(=O)NCCCCc3cccc4c3n(C)c(=O)n4C3CCC(=O)NC3=O)cn2)cc1Nc1cccc(-c2ncc(F)cn2)c1OC` (stereo not drawn) [Example K114]: less than 0.001 µM; for `CNC(=O)c1cnc(Nc2ccc(C(=O)NCCCCCCc3cccc4c3n(C)c(=O)n4C3CCC(=O)NC3=O)cn2)cc1Nc1cccc(-c2ncc(F)cn2)c1OC` (stereo not drawn) [Example K115]: less than 0.001 µM; for `CNC(=O)c1cnc(Nc2ccc(C(=O)NCCCCCCCCc3cccc4c3n(C)c(=O)n4C3CCC(=O)NC3=O)cn2)cc1Nc1cccc(-c2ncc(F)cn2)c1OC` (stereo not drawn) [Example K116]: 0.001 to 0.01 µM.
Take `CNC(=O)c1cnc(Nc2cc(C(=O)NCCCCc3ccc4c(c3)n(C)c(=O)n4C3CCC(=O)NC3=O)ccn2)cc1Nc1cccc(-c2ncc(F)cn2)c1OC` (stereo not drawn) [Example K126]: the DC50 was less than 0.001 µM.
Same read-out and setting: the same measure for `CNC(=O)c1cnc(Nc2cc(C(=O)NCCCCCCc3ccc4c(c3)n(C)c(=O)n4C3CCC(=O)NC3=O)ccn2)cc1Nc1cccc(-c2ncc(F)cn2)c1OC` (stereo not drawn) [Example K127]: less than 0.001 µM; for `CNC(=O)c1cnc(Nc2cc(C(=O)NCCCCc3cccc4c3n(C)c(=O)n4C3CCC(=O)NC3=O)ccn2)cc1Nc1cccc(-c2ncc(F)cn2)c1OC` (stereo not drawn) [Example K128]: 0.001 to 0.01 µM; for `CNC(=O)c1cnc(Nc2cc(C(=O)NCCCCCCCCc3ccc4c(c3)n(C)c(=O)n4C3CCC(=O)NC3=O)ccn2)cc1Nc1cccc(-c2ncc(F)cn2)c1OC` (stereo not drawn) [Example K129]: less than 0.001 µM.
Same read-out and setting: the same measure for `CNC(=O)c1cnc(Nc2cc(C(=O)NCCCCCCCCc3cccc4c3n(C)c(=O)n4C3CCC(=O)NC3=O)ccn2)cc1Nc1cccc(-c2ncc(F)cn2)c1OC` (stereo not drawn) [Example K130]: 0.001 to 0.01 µM.
Same read-out and setting: the same measure for `CNC(=O)c1cnc(Nc2ccc(C(=O)N(C)C3CCN(c4ccc5c(c4)n(C)c(=O)n5C4CCC(=O)NC4=O)CC3)cn2)cc1Nc1ccccc1OC` (stereo not drawn) [Example K133]: more than 0.1 µM.

The target of a further assay is T1, TYK2. The experiment in a line: TYK2 degradation MSD assay in EBV-B cells. Further details: endogenous in cells; host or cells: EBV-B cells. The format is cell-based. The note with it: 4 to 24 hours incubation, read-out: TYK2 MSD DC50 rating in EBV-B. Here is the method:
as §1, §2
As to `CNC(=O)c1cnc(Nc2ccc(C(=O)NCCCCCCCCc3ccc4c(c3)n(C)c(=O)n4C3CCC(=O)NC3=O)cn2)cc1Nc1cccc(-c2ncc(F)cn2)c1OC` (stereo not drawn) [Example K111], the DC50 was 0.001 to 0.01 µM.
Still for that read-out and setting: the same measure for `CNC(=O)c1cnc(Nc2ccc(C(=O)NCCOCCOCCc3ccc4c(c3)n(C)c(=O)n4C3CCC(=O)NC3=O)cn2)cc1Nc1cccc(-c2ncc(F)cn2)c1OC` (stereo not drawn) [Example K112]: 0.001 to 0.01 µM; for `CNC(=O)c1cnc(Nc2ccc(C(=O)NCCOCCOCCOCCOCCc3ccc4c(c3)n(C)c(=O)n4C3CCC(=O)NC3=O)cn2)cc1Nc1cccc(-c2ncc(F)cn2)c1OC` (stereo not drawn) [Example K113]: more than 0.1 µM.
On to `CNC(=O)c1cnc(Nc2ccc(C(=O)NCCCCc3cccc4c3n(C)c(=O)n4C3CCC(=O)NC3=O)cn2)cc1Nc1cccc(-c2ncc(F)cn2)c1OC` (stereo not drawn) [Example K114], for which the DC50 was 0.001 to 0.01 µM.
On the same count and under the same terms, the same measure for `CNC(=O)c1cnc(Nc2ccc(C(=O)NCCCCCCc3cccc4c3n(C)c(=O)n4C3CCC(=O)NC3=O)cn2)cc1Nc1cccc(-c2ncc(F)cn2)c1OC` (stereo not drawn) [Example K115]: less than 0.001 µM; for `CNC(=O)c1cnc(Nc2ccc(C(=O)NCCCCCCCCc3cccc4c3n(C)c(=O)n4C3CCC(=O)NC3=O)cn2)cc1Nc1cccc(-c2ncc(F)cn2)c1OC` (stereo not drawn) [Example K116]: 0.001 to 0.01 µM.
Same read-out and setting: the same measure for `CNC(=O)c1cnc(Nc2cc(C(=O)NCCCCc3ccc4c(c3)n(C)c(=O)n4C3CCC(=O)NC3=O)ccn2)cc1Nc1cccc(-c2ncc(F)cn2)c1OC` (stereo not drawn) [Example K126]: more than 0.1 µM.
Still for that read-out and setting: as for `CNC(=O)c1cnc(Nc2cc(C(=O)NCCCCCCc3ccc4c(c3)n(C)c(=O)n4C3CCC(=O)NC3=O)ccn2)cc1Nc1cccc(-c2ncc(F)cn2)c1OC` (stereo not drawn) [Example K127], the figure is more than 0.1 µM.
For `CNC(=O)c1cnc(Nc2cc(C(=O)NCCCCc3cccc4c3n(C)c(=O)n4C3CCC(=O)NC3=O)ccn2)cc1Nc1cccc(-c2ncc(F)cn2)c1OC` (stereo not drawn) [Example K128], the DC50 is more than 0.1 µM.
In the case of `CNC(=O)c1cnc(Nc2cc(C(=O)NCCCCCCCCc3ccc4c(c3)n(C)c(=O)n4C3CCC(=O)NC3=O)ccn2)cc1Nc1cccc(-c2ncc(F)cn2)c1OC` (stereo not drawn) [Example K129], the 50% degradation concentration (DC50) was in the range of 0.001 to 0.01 µM.
On the same count and under the same terms, the same measure for `CNC(=O)c1cnc(Nc2cc(C(=O)NCCCCCCCCc3cccc4c3n(C)c(=O)n4C3CCC(=O)NC3=O)ccn2)cc1Nc1cccc(-c2ncc(F)cn2)c1OC` (stereo not drawn) [Example K130]: 0.001 to 0.01 µM; for `CNC(=O)c1cnc(Nc2ccc(C(=O)N(C)C3CCN(c4ccc5c(c4)n(C)c(=O)n5C4CCC(=O)NC4=O)CC3)cn2)cc1Nc1ccccc1OC` (stereo not drawn) [Example K133]: 0.001 to 0.01 µM.

Another assay deals with T1, TYK2. The experiment in a line: TYK2 degradation MSD assay in OCI-LY10 cells. The note with it: 4 to 24 hours incubation, read-out: TYK2 MSD DC50 rating in OCI-LY10. It counts as cell-based. Further details: endogenous in cells; host or cells: EBV-B cells. Here is the method:
as §1, §2
On to `CNC(=O)c1cnc(Nc2ccc(C(=O)NCCCCCCCCc3ccc4c(c3)n(C)c(=O)n4C3CCC(=O)NC3=O)cn2)cc1Nc1cccc(-c2ncc(F)cn2)c1OC` (stereo not drawn) [Example K111], for which the half-maximal degradation concentration (DC50) is more than 0.1 µM.
On the same count and under the same terms, as for `CNC(=O)c1cnc(Nc2ccc(C(=O)NCCOCCOCCc3ccc4c(c3)n(C)c(=O)n4C3CCC(=O)NC3=O)cn2)cc1Nc1cccc(-c2ncc(F)cn2)c1OC` (stereo not drawn) [Example K112], the figure is more than 0.1 µM; as for `CNC(=O)c1cnc(Nc2ccc(C(=O)NCCOCCOCCOCCOCCc3ccc4c(c3)n(C)c(=O)n4C3CCC(=O)NC3=O)cn2)cc1Nc1cccc(-c2ncc(F)cn2)c1OC` (stereo not drawn) [Example K113], more than 0.1 µM.
On the same count and under the same terms, as for `CNC(=O)c1cnc(Nc2ccc(C(=O)NCCCCc3cccc4c3n(C)c(=O)n4C3CCC(=O)NC3=O)cn2)cc1Nc1cccc(-c2ncc(F)cn2)c1OC` (stereo not drawn) [Example K114], the figure is less than 0.001 µM; as for `CNC(=O)c1cnc(Nc2ccc(C(=O)NCCCCCCc3cccc4c3n(C)c(=O)n4C3CCC(=O)NC3=O)cn2)cc1Nc1cccc(-c2ncc(F)cn2)c1OC` (stereo not drawn) [Example K115], more than 0.1 µM.
In the case of `CNC(=O)c1cnc(Nc2ccc(C(=O)NCCCCCCCCc3cccc4c3n(C)c(=O)n4C3CCC(=O)NC3=O)cn2)cc1Nc1cccc(-c2ncc(F)cn2)c1OC` (stereo not drawn) [Example K116], the DC50 is more than 0.1 µM.
On the same count and under the same terms, the same measure for `CNC(=O)c1cnc(Nc2cc(C(=O)NCCCCc3ccc4c(c3)n(C)c(=O)n4C3CCC(=O)NC3=O)ccn2)cc1Nc1cccc(-c2ncc(F)cn2)c1OC` (stereo not drawn) [Example K126]: more than 0.1 µM; for `CNC(=O)c1cnc(Nc2cc(C(=O)NCCCCCCc3ccc4c(c3)n(C)c(=O)n4C3CCC(=O)NC3=O)ccn2)cc1Nc1cccc(-c2ncc(F)cn2)c1OC` (stereo not drawn) [Example K127]: more than 0.1 µM; for `CNC(=O)c1cnc(Nc2cc(C(=O)NCCCCc3cccc4c3n(C)c(=O)n4C3CCC(=O)NC3=O)ccn2)cc1Nc1cccc(-c2ncc(F)cn2)c1OC` (stereo not drawn) [Example K128]: more than 0.1 µM.
The same measure, in the same setting: the same measure for `CNC(=O)c1cnc(Nc2cc(C(=O)NCCCCCCCCc3ccc4c(c3)n(C)c(=O)n4C3CCC(=O)NC3=O)ccn2)cc1Nc1cccc(-c2ncc(F)cn2)c1OC` (stereo not drawn) [Example K129]: more than 0.1 µM.
Take `CNC(=O)c1cnc(Nc2cc(C(=O)NCCCCCCCCc3cccc4c3n(C)c(=O)n4C3CCC(=O)NC3=O)ccn2)cc1Nc1cccc(-c2ncc(F)cn2)c1OC` (stereo not drawn) [Example K130]: the half-maximal degradation concentration (DC50) was more than 0.1 µM.
Still for that read-out and setting: as for `CNC(=O)c1cnc(Nc2ccc(C(=O)N(C)C3CCN(c4ccc5c(c4)n(C)c(=O)n5C4CCC(=O)NC4=O)CC3)cn2)cc1Nc1ccccc1OC` (stereo not drawn) [Example K133], the figure is more than 0.1 µM.
